Results published in patent US20120028917A1, “Use Of N-(4-((3-(2-Amino-4-Pyrimidinyl)-2-Pyridinyl)Oxy)Phenyl)-4-(4-Methyl-2-Thienyl)-1-Phthalazinamine In The Treatment Of Antimitotic Agent Resistant Cancer” (Amgen Inc., priority 2009, published 2012).
Values joined by “and” are separate entries in the source; they are usually repeats but may differ in a detail not shown here. Equal entries are not always repeated. Where two headings read alike, the source gives them in different places. Marks after values point to notes of the source that are not given here.

What was measured:
[1] = tested on: NCI-H460-taxol resistant tumor xenografts; test: Growth of established NCI-H460-taxol resistant xenografts (Example 4); format: in vivo, athymic nude mice
Experimental: To investigate whether AMG 900-induced suppression of aurora kinase activity inhibits cell proliferation, the antitumor efficacy of AMG 900 was evaluated in vivo against NCI-H460-taxol resistant tumor xenografts in athymic nude mice. Mice were dosed PO with AMG 900 (BID) either intermittently or continuously. Mice were dosed IP with paclitaxel (taxol) 5 days/week. An internal Amgen compound was used as a positive control in this study (data not shown). Tumors were measured twice per week. Treatment began on day 12 when the tumors were established. All groups were provided nutritional supplements on a daily basis throughout the study to maintain body weight. AMG 900 (free base) was formulated into suspension to concentrations of 1.5 and 0.3 mg/mL. […] The duration of the dosing phase for AMG 900 was three weeks, and two weeks for the taxol group. The tumors were measured with a digital caliper and the mice were weighed twice per week. Tumor volumes were calculated as follows: […] Tumor inhibition was calculated as follows: […] FIG. 5 illustrates the effects of AMG 900 and Taxol treatment on the growth of established H460-taxol resistant tumors. […] Tumors were measured twice per week. Treatment began 12 days after tumor implantation (arrow) when tumors were approximately 170 mm^3. Mice were dosed PO or IP once or twice daily for 3 weeks. Data represent mean ±SE for each group. *P values (not shown) correspond to statistical difference between groups treated with vehicle and AMG 900 or Taxol analyzed with repeated measure Sheffe's ANOVA over time using […]. The scheduled days listed in the legend represent days/ week. All groups were provided nutritional supplements throughout the study.

RPMI8226 = test: ≧4N DNA content assay (flow cytometry); format: cell-based, human; settings: Homo sapiens
Experimental: (§1) Tumor cells were treated with AMG 900, AZD1152, MK-0457, or PHA-739358 (range concentration varied based on potency) for 24 hours and processed for cell-cycle analysis (DNA staining only) as previously described (1). Cells were analyzed on a LSRII flow cytometer using BD FACS Diva software. The concentration-response curves and corresponding EC50 values were calculated using the percentage of cells with ≧4N DNA content versus the DMSO control.

U226-B1 = test: ≧4N DNA content assay (flow cytometry); format: cell-based, human; settings: Homo sapiens; U226-B1, BCRP −; 24 hours
Experimental: as §1

HCT15 = test: Cellular EC50, additional cell lines (Table 6-B); format: cell-based, human; settings: Homo sapiens, HCT-15, Colon, P-gp+
Experimental: (§2) All high-content cell assays were performed on an ArrayScan VTi HCS Reader (Cellomics). Tumor cell lines were treated with AMG 900, AZD1152, MK-0457, or PHA-739358 (concentration range varied based on potency). The cells were prepared for intracellular staining with an anti-p-histone H3 Ser^10 antibody as previously described (1). Detection was performed with an anti-rabbit IgG-alexa-568 antibody and DAPI. The cellular levels of p-histone H3 were analyzed using Target Activation V2 algorithm (Cellomics) to determine the percentage of positive cells. For the imaging assays, the concentration-response curves and corresponding IC50 and EC50 values were calculated using the percentage of cells affected versus the DMSO control.
as §1

MCF-7 = test: Cellular EC50, additional cell lines (Table 6-B); format: cell-based, human; settings: Homo sapiens, MCF7; MCF-7, Breast
Experimental: as §2, §1

769P = test: Cellular EC50, additional cell lines (Table 6-B); format: cell-based; settings: Homo sapiens, Kidney, P-gp+
Experimental: as §2, §1

SNU499 = test: Cellular EC50, additional cell lines (Table 6-B); format: cell-based; settings: Homo sapiens, Liver, P-gp+
Experimental: as §2, §1

HCT116 xenograft = test: Xenograft tumor growth inhibition (Example 7); format: in vivo, mice; settings: HCT116, Colon; oral 15 mg/kg b.i.d. 2 consecutive days per week or 3 mg/kg b.i.d. every day, 3 weeks
Experimental: Mice were injected subcutaneously with 2×10^6 human HCT 116 colon tumor cells. When tumors were established (approximately 200 mm^3), mice were randomized into experimental treatment groups (n=10) and treated orally with AMG 900 at 1.5, 2.25 or 3 mg/kg everyday or, 3.75, 7.5 or 15 mg/kg intermittently for the duration of the experiment. Mice were provided nutritional supplements on a daily basis. Tumor volumes and body weights were recorded twice per week using caliper and analytical digital scale, respectfully. Tumor data were represented by mean tumor volume +/−SEM. Statistical significance for tumor growth inhibition was determined by repeated measurements ANOVA (RMANOVA) followed by Scheffe post-hoc analysis.
The in-vivo effect of AMG 900 on tumor growth was further evaluated in a panel of human xenografts from five different tumor types (breast, colon, lung, pancreatic, and uterine), including three MDR xenograft models. Mice bearing established tumors were orally administered AMG 900 at 15 mg/kg b.i.d. for 2 consecutive days per week for 3 weeks or at 3 mg/kg b.i.d. every day for 3 weeks. The maximum percentage of tumor growth inhibition (TGI) is reported, in Table 7 below, for each xenograft model. The percentage of TGI was calculated as the difference between the change in vehicle-treated control and AMG 900-treated tumor volumes during the study period.

[2] = 3mpk PO BID 7 days/week × 3 wks
[3] = 15mpk PO BID 2 days ON/5 day OFF/week × 3 wks

EC50 (RPMI8226; RPMI-8226, RPMI8226, BCRP +, 24 hours, read-out: ≧4N DNA Content assay, EC50 value): 3 nM | EC50 (RPMI8226; RPMI-8226**, Multiple Myeloma, P-gp− and/or BCRP+, read-out: Cellular EC50): 3 nM | EC50 (U226-B1): 2 nM | EC50 (HCT15): 2 nM | EC50 (MCF-7): 1 nM | EC50 (769P): 4 nM | EC50 (SNU499): 2 nM
SMILES: Cc1csc(-c2nnc(Nc3ccc(Oc4ncccc4-c4ccnc(N)n4)cc3)c3ccccc23)c1 [AMG 900, N-(4-((3-(2-amino-4-pyrimidinyl)-2-pyridinyl)oxy)phenyl)-4-(4-methyl-2-thienyl)-1-phthalazinamine]
% Inhibition (tumor growth) [1, 2]: 60% and 60.4% | Tumor volume, Mean [1, 2]: 771 mm^3 | Tumor volume, Median [1, 2]: 715.6 mm^3 | % Inhibition (tumor growth) [1, 3]: 66% and 65.7% | Tumor volume, Mean [1, 3]: 689 mm^3 | Tumor volume, Median [1, 3]: 612.5 mm^3 | Maximum TGI (%) (HCT116 xenograft): 85** %
